Earlier results as cited in patent US20240335441A1, “METHOD OF TREATING POSTTRAUMATIC STRESS DISORDER” (Jazz Pharmaceuticals Ireland Limited, priority 2021, published 2024).

Tests used:
[1] = tested on: men with cannabis use disorder (CUD); details: compared to placebo
healthy volunteers = details: placebo-controlled

SMILES: O=C(Nc1cccnn1)N1CCC(=Cc2cccc(Oc3ccc(C(F)(F)F)cn3)c2)CC1 [Compound A, N-Pyridazin-3-yl-4-{3-[5-(trifluoromethyl)-2-pyridyloxy]benzylidene}piperidine-1-carboxamide]
- self-reported overall sleep [1]: improved
- slow wave sleep as measured by polysomnography [1]: significantly increased
- negative affect in response to an aversive stimulus (healthy volunteers): blunted
- recall of fear extinction memory (healthy volunteers): enhanced
